Assay results from US20210113523A1, “Compositions For Treating And/Or Preventing Photodynamic Therapy Side Effects” (AC BIOSCIENCE SA, priority 2018, published 2021).
Read-outs that look alike come from different tables or passages of the source.

Experiments:
mast cells = assay: Mast cell degranulation estimated by beta-hexosaminidase release (IgE/anti-IgE); assay type: cell-based; conditions: 1 hour after IgE stimulation
Description: Degranulation was induced by the addition of IgE followed by the addition of anti-IgE Beta-hexosaminidase was measured 1 hour after IgE stimulation. Reference molecule was cromoglycate.

activated mast cells = assay: IL6 release from activated mast cells; assay type: cell-based; conditions: primed mast cells activated by anti IgE, 6 hours; FIG. 2
Description: Mast cells were obtained from CD34+ progenitors cultivated during 8 weeks in the presence of stem cell factor and IL3. Some mast cells (light grey with spots) were primed during 5 days by IL4 and IgE. Primed mast cells were activated by anti IgE and IL6 release is measured 6 hours following the activation. Masitinib (Masi) a c-kit receptor inhibitor is taken as positive control. Dark grey corresponds to the basal release of IL6 in the absence of mast cells activation. Maximum release of resting mast cells were obtained by the use of a calcium ionophore.

human neutrophils = assay: ROS production of PMA-activated neutrophils (chemiluminescence); assay type: cell-based; conditions: activation by 100 ng/ml PMA; FIG. 1
Description: ROS production is measured using a chemiluminescence standard procedure: briefly, one hundred microliters of human neutrophils (4×10^6/mL) were primed with TNF-α at 37° C. for 25 minutes. 100 μL luminol (1 μM final concentration) and HRP (62.5 U/mL final concentration) in HBSS were added, and 150-μL aliquots were transferred to a prewarmed 96-well luminometer plate. Light emission was recorded by a Berthold MicroLumat Plus luminometer (Berthold Technologies, Hartfordshire, United Kingdom) (data output is in relative light units per second)

[1] = read-out: NO scavenging IC50; cited from earlier work
[2] = read-out: 2,2-diphenyl-1-picrylhydrazyl scavenging IC50; cited from earlier work
[3] = 10 mg/kg; cited from earlier work
[4] = test system: Chick Chorioallantoic Membrane (CAM) vessel network; assay: CAM vessel network following PDT irradiation; assay type: in vivo
Description: 5-ALA (20 mg/ml; pH=6.8) was topically applied on CAM 4 hours before PDT □ For Catechin samples, Catechin (at different concentrations: 1-30 μM) was topically applied on CAM 15 min before PDT-PDT: λ=405 nm irradiance=2.86 mW/cm2 light dose=1.2 J/cm2-10 μM Catechin has the most protective effect against PDT deleterious effect. 5-ALA: aminolevulinique acid.

[5] = 10−4 M, control without IgE 0.132
[6] = 10−5 M, control without IgE 0.135

## O=C1c2c(O)cc(O)cc2O[C@H](c2ccc(O)c(O)c2)[C@H]1O [DHQ, Dihydroquercetin]
Mast cells; [5]
  beta-hexosaminidase release: 0.28
Mast cells; [6]
  beta-hexosaminidase release: 0.52
Activated mast cells
  IL6 release from activated mast cells: inhibitor of IL6 release
Human neutrophils
  reactive oxygen species (ROS) production by neutrophils: inhibitory effect

## Oc1cc(O)cc(/C=C/c2ccc(O)cc2O)c1 [Oxyresveratrol]
[1]
  IC50: 45.3 µM
[2]
  IC50: 28.9 µM
[3]
  brain infarct volume: reducing
  caspase-3 activation: reducing
  cytochrome c release: reducing

## O=C(O)c1cc(=O)c2c(OCC(O)COc3cccc4oc(C(=O)O)cc(=O)c34)cccc2o1 [Reference molecule, cromoglycate, reference compound]
Mast cells; [5]
  beta-hexosaminidase release: 0.34
Mast cells; [6]
  beta-hexosaminidase release: 0.48

## (+)Catechin
[4]; presence of microvessels in the CAM vasculature network, FIG. 5A
  Catechin concentration at which microvessel protection is evidenced (as low as): 1 µM
[4]; topically applied on CAM 15 min before PDT, tested 1-30 μM, 5-ALA 20 mg/ml
  Catechin concentration with the most protective effect against PDT deleterious effect: 10 µM
